SMILES strings stand for the structures. The source made the active and inactive calls. The rule behind the calls is not given here. Some results are limits rather than exact numbers.

A short description of series [1]: Oral bioavailability in ICR mouse at 10 mg/kg administered via gavage by mass spectrometric analysis. Type of series: ADME, organism-based. The conditions noted are these: in vivo.
Series [2] has as its system MOLM-13. Put plainly: Cell cycle arrest in human MOLM13 cells assessed as decrease in accumulation at S-phase measured after 72 hrs by propidium iodide staining-based flow cytometry. Type of series: functional. Background: Flow cytometry measures light scatter and fluorescence of single cells or particles in a stream.
The subject of series [3] is RS4-11. Put plainly: Antiproliferative activity against human RS4:11 cells measured after 6 days by CCK8/SRB assay. Format: functional, cell-based. In general terms: In SRB staining, fixed cells bind dye roughly in proportion to their protein.
A short description of series [4]: Toxicity in nude BALB/c mouse xenografted with human MOLM13 cells assessed as visible changes at 100 mg/kg, po administered daily for 18 days. Type of series: organism-based. The conditions noted are these: in vivo, 432 h. For orientation: Xenograft models place foreign cells or tissue in a host animal.
A short description of series [5]: Drug level in ICR mouse plasma at 10 mg/kg, po administered via gavage measured after 0.25 to 24 hrs by mass spectrometric analysis. Type of series: ADME, organism-based. The conditions noted are these: in vivo.
A short description of series [6]: AUC (0 to last) in ICR mouse at 3 mg/kg, iv by mass spectrometric analysis. Format: ADME, organism-based. The arrangement: dose 3 mg/kg, route intravenous, time 0 - last. To be noted: in vivo.
For series [7], the system named is Mus musculus. Put plainly: In vivo inhibition of PRMT4 in nude BALB/c mouse xenografted with human MOLM13 cells assessed as reduction in PABP1 dimethylation at 100 mg/kg, po administered daily for 18 days measured 6 hrs post-last dose by Western blot analysis. Format: functional, organism-based.
Series [8] deals with Histone-lysine N-methyltransferase 2A (Homo sapiens) (UniProt Q03164). The series is described as follows: Inhibition of MLL1 (unknown origin) up to 50 uM preincubated for 10 mins followed by peptide substrate addition and measured after 4 hrs in presence of SAM by HTRF assay.
Series [9] in a line: Toxicity in nude BALB/c mouse xenografted with human MOLM13 cells assessed as body weight loss at 100 mg/kg, po administered daily for 18 days measured 2 to 3 times a week during compound dosing. Format: organism-based. To be noted: in vivo, 432 h.
Series [10] has as its system Mus musculus. Put plainly: In vivo inhibition of PRMT4 in nude BALB/c mouse xenografted with human MOLM13 cells assessed as reduction in BAF155 dimethylation at 100 mg/kg, po administered daily for 18 days measured 6 hrs post-last dose by Western blot analysis. Type of series: functional, organism-based.
The target in series [11] is Histone-lysine N-methyltransferase EZH2 (Homo sapiens) (UniProt Q15910). Put plainly: Inhibition of EZH2 (unknown origin) up to 50 uM preincubated for 10 mins followed by peptide substrate addition and measured after 4 hrs in presence of SAM by HTRF assay.
Series [12] has as its target Protein arginine N-methyltransferase 6 (Homo sapiens, UniProt Q96LA8). The series is described as follows: Inhibition of PRMT6 (unknown origin) preincubated for 15 mins followed by substrate addition and measured after 60 mins by AlphaLisa assay.
For series [13], the target named is Protein arginine N-methyltransferase 7 (Homo sapiens, UniProt Q9NVM4). The series is described as follows: Inhibition of recombinant full-length human PRMT7 expressed in Sf9 insect cells using Ac-KKDGKKRKRSRKESYK-biotin as substrate measured after 30 mins in presence of SAM by topcount scintillation counting method.
Series [14] deals with MOLT-4. Put plainly: Antiproliferative activity against human MOLT4 cells measured after 6 days by CCK8/SRB assay. Format: functional, cell-based.
Series [15] is described as follows: Volume of distribution at steady state in ICR mouse at 3 mg/kg, iv by mass spectrometric analysis. The conditions noted are these: in vivo, read-out: Vdss. Format: ADME, organism-based.
In series [16] the test system is THP-1. The series is described as follows: Antiproliferative activity against human THP1 cells measured after 6 days by CCK8/SRB assay. Format: functional, cell-based.
Series [17] has as its system MOLM-13. The series is described as follows: Cell cycle arrest in human MOLM13 cells assessed as increase in accumulation at G0/G1-phase measured after 72 hrs by propidium iodide staining-based flow cytometry. Format: functional.
Series [18] has as its target Histone-lysine N-methyltransferase SETD2 (Homo sapiens) (UniProt Q9BYW2). Put plainly: Inhibition of SETD2 (unknown origin) up to 50 uM.
In series [19] the target is T1, Histone-arginine methyltransferase CARM1 (Homo sapiens, UniProt Q86X55).
T1 sequence (Q86X55 whole entry): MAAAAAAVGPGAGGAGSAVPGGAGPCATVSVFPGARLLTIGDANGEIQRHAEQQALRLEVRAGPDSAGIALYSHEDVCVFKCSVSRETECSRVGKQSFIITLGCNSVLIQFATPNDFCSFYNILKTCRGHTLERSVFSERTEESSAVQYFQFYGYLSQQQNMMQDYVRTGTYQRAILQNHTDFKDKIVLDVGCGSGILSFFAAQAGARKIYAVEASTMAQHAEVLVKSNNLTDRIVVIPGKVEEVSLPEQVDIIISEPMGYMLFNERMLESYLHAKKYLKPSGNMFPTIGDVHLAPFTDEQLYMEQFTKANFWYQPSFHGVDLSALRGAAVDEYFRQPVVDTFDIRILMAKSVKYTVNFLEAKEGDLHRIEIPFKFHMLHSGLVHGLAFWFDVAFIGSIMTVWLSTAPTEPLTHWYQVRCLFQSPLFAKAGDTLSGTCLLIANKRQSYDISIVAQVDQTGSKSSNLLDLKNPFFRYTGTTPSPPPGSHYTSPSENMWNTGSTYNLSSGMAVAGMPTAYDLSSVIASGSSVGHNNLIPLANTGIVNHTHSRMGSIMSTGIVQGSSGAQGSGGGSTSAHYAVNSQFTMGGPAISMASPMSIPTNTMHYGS
The series is described as follows: Inhibition of PRMT4 in human MOLM13 cells assessed as reduction in PABP1 dimethylation measured after 96 hrs by Western blotting analysis. Type of series: cell-based.

The nature of series [20]: Selectivity ratio of IC50 for antiproliferative activity against human MOLM13 cells to IC50 for inhibition of PRMT4 in human MOLM13 cells assessed as reduction in BAF155 dimethylation.

Chain of Histone-lysine N-methyltransferase EZH2 (Homo sapiens) (Q15910 whole entry, looked up): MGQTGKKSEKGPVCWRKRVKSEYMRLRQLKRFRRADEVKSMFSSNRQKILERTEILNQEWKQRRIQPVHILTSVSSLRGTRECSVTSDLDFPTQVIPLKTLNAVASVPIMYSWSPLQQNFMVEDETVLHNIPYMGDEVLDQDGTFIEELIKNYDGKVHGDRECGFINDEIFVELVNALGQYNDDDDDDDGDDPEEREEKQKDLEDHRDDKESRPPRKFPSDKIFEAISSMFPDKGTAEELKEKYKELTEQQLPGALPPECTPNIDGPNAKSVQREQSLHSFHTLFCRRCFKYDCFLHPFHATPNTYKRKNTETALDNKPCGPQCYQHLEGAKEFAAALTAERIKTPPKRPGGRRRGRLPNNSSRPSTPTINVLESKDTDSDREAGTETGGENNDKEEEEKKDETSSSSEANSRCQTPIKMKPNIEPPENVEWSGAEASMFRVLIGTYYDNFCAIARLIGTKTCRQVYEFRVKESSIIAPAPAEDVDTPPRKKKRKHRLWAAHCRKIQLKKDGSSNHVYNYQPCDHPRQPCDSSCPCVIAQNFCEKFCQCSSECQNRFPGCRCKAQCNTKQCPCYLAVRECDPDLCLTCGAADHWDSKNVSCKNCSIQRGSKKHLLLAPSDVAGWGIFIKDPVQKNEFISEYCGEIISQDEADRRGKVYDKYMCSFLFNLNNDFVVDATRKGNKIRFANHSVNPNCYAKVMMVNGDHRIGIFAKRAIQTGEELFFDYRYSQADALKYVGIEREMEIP
Chain of Protein arginine N-methyltransferase 6 (Q96LA8 whole entry): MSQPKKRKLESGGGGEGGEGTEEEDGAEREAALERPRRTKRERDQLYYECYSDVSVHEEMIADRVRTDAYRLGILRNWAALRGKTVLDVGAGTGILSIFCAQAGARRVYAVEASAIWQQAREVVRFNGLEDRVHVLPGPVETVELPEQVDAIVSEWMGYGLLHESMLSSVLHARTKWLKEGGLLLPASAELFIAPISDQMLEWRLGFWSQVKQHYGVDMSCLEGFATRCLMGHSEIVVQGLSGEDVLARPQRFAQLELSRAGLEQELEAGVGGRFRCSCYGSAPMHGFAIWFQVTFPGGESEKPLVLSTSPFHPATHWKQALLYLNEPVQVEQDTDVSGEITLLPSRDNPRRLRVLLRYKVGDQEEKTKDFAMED
Chain of Histone-lysine N-methyltransferase 2A (Homo sapiens) (Q03164 1-2718 limits assumed): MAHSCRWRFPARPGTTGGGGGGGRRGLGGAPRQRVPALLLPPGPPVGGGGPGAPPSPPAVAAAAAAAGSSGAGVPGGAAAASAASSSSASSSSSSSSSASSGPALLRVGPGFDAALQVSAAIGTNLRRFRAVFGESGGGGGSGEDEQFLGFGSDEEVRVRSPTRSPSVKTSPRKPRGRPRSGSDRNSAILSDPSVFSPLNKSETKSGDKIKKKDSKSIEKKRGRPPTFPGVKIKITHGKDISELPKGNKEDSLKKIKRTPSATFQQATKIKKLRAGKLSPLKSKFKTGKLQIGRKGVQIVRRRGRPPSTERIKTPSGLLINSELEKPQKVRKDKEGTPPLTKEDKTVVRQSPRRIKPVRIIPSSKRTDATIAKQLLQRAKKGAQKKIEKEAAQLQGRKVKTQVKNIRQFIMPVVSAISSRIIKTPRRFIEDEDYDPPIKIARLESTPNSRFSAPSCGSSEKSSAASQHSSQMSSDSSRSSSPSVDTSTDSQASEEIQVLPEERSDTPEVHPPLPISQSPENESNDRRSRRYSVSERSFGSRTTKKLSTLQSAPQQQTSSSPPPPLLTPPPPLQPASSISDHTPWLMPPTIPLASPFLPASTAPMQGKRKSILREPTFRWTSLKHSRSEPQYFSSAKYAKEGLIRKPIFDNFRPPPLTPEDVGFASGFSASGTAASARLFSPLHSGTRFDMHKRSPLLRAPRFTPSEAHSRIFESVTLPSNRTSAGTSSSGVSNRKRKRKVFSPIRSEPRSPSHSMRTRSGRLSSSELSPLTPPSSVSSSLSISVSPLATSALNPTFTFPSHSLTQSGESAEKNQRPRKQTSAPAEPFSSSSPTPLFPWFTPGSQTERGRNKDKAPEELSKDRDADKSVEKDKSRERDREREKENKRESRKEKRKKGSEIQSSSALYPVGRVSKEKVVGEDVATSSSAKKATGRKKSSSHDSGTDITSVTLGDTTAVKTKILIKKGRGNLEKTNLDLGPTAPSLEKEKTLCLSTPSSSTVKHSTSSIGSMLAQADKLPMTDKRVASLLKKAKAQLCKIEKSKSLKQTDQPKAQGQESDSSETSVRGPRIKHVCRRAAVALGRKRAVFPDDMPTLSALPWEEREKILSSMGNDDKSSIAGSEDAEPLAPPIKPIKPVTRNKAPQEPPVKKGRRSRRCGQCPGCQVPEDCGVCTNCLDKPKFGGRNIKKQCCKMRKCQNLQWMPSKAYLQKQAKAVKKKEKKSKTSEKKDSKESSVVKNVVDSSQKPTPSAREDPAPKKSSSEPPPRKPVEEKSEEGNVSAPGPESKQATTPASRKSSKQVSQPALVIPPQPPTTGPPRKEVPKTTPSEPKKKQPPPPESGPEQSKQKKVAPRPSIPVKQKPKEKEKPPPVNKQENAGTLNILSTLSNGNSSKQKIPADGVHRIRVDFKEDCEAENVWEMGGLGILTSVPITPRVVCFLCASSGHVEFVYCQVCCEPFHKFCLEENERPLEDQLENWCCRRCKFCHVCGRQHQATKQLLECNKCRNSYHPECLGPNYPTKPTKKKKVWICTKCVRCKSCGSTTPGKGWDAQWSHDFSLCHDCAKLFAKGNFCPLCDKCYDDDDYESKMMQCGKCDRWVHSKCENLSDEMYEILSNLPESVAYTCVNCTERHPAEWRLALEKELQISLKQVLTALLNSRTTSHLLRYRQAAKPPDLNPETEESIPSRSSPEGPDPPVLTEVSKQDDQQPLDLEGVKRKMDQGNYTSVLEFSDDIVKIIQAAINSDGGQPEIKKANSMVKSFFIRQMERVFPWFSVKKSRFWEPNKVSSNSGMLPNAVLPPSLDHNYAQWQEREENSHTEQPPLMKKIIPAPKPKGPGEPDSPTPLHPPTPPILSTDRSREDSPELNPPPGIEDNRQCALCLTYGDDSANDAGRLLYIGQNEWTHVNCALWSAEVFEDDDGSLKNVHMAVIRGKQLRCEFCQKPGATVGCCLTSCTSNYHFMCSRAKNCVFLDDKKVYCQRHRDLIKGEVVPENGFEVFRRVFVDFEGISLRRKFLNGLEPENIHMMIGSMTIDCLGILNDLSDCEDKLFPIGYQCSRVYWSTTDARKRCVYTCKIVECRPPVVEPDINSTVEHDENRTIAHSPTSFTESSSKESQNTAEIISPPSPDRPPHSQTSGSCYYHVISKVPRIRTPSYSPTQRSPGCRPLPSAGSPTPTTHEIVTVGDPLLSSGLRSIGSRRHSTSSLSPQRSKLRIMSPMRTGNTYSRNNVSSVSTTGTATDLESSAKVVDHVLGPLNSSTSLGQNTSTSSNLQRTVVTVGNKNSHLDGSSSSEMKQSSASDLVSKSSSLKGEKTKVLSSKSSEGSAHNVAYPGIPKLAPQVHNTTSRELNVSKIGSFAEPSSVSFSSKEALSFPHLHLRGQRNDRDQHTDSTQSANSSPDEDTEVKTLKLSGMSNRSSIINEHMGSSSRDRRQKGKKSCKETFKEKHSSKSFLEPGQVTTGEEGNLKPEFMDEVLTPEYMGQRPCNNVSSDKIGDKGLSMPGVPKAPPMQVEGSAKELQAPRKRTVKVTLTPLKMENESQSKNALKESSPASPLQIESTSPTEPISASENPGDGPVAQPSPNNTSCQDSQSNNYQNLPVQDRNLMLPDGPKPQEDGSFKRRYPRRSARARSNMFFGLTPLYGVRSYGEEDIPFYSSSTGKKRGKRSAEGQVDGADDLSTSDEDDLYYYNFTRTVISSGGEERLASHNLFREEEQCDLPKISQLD
Chain of Histone-lysine N-methyltransferase 2A (Homo sapiens) (Q03164 2719-3969 limits assumed): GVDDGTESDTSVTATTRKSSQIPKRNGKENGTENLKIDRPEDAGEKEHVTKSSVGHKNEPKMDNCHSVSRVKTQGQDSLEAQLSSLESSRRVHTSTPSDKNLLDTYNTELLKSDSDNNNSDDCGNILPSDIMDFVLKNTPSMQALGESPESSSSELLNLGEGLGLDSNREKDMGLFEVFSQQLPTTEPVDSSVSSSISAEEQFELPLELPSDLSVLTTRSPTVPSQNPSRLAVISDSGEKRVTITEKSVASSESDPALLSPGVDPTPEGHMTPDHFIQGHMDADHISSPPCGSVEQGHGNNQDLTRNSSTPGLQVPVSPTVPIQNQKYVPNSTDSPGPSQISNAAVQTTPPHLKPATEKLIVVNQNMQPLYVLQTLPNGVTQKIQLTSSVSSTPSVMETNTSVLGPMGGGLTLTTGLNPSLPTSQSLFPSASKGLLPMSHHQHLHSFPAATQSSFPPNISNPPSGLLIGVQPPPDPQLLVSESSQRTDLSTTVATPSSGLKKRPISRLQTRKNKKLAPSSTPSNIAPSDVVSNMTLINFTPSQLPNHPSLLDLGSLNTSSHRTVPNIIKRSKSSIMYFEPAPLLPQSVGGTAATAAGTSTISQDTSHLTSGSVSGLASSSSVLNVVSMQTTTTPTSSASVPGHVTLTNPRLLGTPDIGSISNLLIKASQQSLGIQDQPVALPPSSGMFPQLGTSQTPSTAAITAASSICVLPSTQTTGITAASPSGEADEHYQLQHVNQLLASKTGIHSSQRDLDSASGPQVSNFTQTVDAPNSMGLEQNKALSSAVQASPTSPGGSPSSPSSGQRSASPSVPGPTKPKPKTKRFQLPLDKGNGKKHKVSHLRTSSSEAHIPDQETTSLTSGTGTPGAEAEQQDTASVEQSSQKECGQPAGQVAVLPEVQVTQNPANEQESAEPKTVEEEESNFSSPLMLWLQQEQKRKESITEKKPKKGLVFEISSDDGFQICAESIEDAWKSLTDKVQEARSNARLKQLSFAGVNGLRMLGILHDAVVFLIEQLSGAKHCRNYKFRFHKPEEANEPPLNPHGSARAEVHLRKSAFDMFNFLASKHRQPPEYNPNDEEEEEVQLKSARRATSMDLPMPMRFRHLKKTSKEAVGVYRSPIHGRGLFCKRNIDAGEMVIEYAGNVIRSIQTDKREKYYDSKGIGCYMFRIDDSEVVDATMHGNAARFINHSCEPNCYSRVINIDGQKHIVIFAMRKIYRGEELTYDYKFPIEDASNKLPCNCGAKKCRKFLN

The term bioavailability denotes the share of a dose that reaches the circulation, judged against a reference dose that is usually intravenous. High values mean much systemic uptake, low ones little systemic uptake. A word on the AUC(0-t): it is exposure summed from dosing to a finite time, without extrapolation to infinity. In general, IC50 refers to the point on the concentration scale where inhibition reaches its midpoint. `CNC[C@@H](O)CN1CCc2c(cccc2OCc2ccc(-c3nccs3)cc2)C1`: in [1], the bioavailability came to 48.8%. Further, the Activity result in [2] is “Dose-dependent effect”; in series [3] it was “Dose-dependent effect”; in series [4], “Non-Toxic”; in series [9], “Non-Toxic”; in series [14], “Dose-dependent effect”; in series [16], “Dose-dependent effect”. For the same compound, in series [17], the Activity result was “Dose-dependent effect”. For the same compound, the concentration in [5] was found to be 120 nM. Moreover, the AUC(0-t) in series [6] came out at 869 ng·h/mL. Moreover, the inhibition result in series [7] and in series [10] was “Active” throughout. Besides, the inhibition result in [8], in [11] and in series [18] was “inactive” throughout. The IC50 in series [12] was 7.9 µM; in series [13], greater than 30 µM; in series [19], 0.545 µM. For the same compound, in series [15], the Vd amounted to 42.6 L/kg. Further, the “Ratio IC50” value in series [20] is given as 10.
